Experimental data as given in patent US12497610B2, “Functional genomics using CRISPR-CAS systems for saturating mutagenesis of non-coding elements, compositions, methods, libraries and applications thereof” (THE BROAD INSTITUTE, INC., priority 2015, dated 2025).

tested on: human BCL11A erythroid enhancer; experiment: Tiled pooled CRISPR-Cas9 screen for in situ functional mapping of the human BCL11A erythroid enhancer (HbF-high/HbF-low sort, sgRNA deep sequencing); format: cell-based; conditions: HbF enrichment; human library NGG and NGG RC sgRNAs filtered for enrichment score >0.259
Description: Every 20-mer sequence upstream of an NGG or NAG PAM sequence on the sense or anti-sense strand was identified for both the human and mouse orthologous +55, +58, and +62 DNase hypersensitive site (DHS) as well as BCL11A/BCL11a exon 2. Relative to the human hg 19 reference genome, a reference was used with the following substitutions to approximate a common low-HbF associated haplotype: rs1427407-G, rs1896293-T, rs6706648-T, rs6738440-G, rs7606173-C. Each of the sgRNA oligos were synthesized as previously described (37,41,64) and cloned using a Gibson Assembly master mix (New England Biolabs) into lentiGuide-Puro (Addgene plasmid ID 52963) BsmBI digested, PCR purified, and dephosphorylated. Gibson Assembly products were transformed to electrocompetent E. cloni cells (Lucigen). Sufficient colonies were isolated to ensure 90X library coverage for both human and mouse libraries. Plasmid libraries were deep sequenced (described below) to confirm representation.
Tiled Pooled CRISPR-Cas9 Screen for In Situ Functional Mapping the Human BCL11A Erythroid Enhancer.
HUDEP clone 2 (HUDEP-2) was utilized as previously described by from Nakamura and colleagues (49). HUDEP-2 cells were expanded in StemSpan SFEM (Stem Cell Technologies) supplemented with 10^−6 M dexamethasone (Sigma), 100 ng/mL human stem cell factor (SCF) (R&D), 3 IU/mL erythropoietin (Amgen), 1% L-glutamine (Life Technologies), and 2% penicillin/streptomycin (Life Technologies). 1 μg/mL doxycycline (Sigma) was included in the culture to induce expression of the human papilloma virus type 16 E6/E7 genes (49). HUDEP-2 cells were differentiated in Iscove's Modified Dulbecco's Medium (IMDM) supplemented with 330 μg/mL halo-transferrin (Sigma), 10 μg/mL recombinant human insulin (Sigma), 2 IU/mL heparin (Sigma), 5% human solvent detergent pooled plasma AB (Rhode Island Blood Center), 3 IU/mL erythropoietin (Amgen), 100 ng/mL human stem cell factor (SCF) (R&D), 1 μg/mL doxycycline (Sigma), 1% L-glutamine (Life Technologies), and 2% penicillin/streptomycin (Life Technologies).
HUDEP-2 cells with stable Cas9 expression were transduced at low multiplicity with the human sgRNA library lentivirus pool while in expansion medium. […] Cell numbers were maintained throughout the experiment at levels adequate to exceed 1000× representation of the library. 10 μg/mL blasticidin (Sigma) and 1 μg/mL puromycin (Sigma) were added 24 hours after transduction to select for lentiviral library integrants in cells with Cas9. Cells were cultured in expansion media for one week followed by differentiation media for an additional week.
Intracellular staining was performed by fixing cells with 0.05% glutaraldehyde (grade II) (Sigma) for 10 minutes at room temperature. Cells were centrifuged for 5 minutes at 350 g and then resuspended in 0.1% Triton-X100 (Life Technologies) for 5 minutes at room temperature for permeabilization. Triton X-100 was diluted with phosphate buffered saline (PBS) and then centrifuged at 350 g for 15 minutes. Cells were stained with anti-human antibodies for HbF (clone HbF-1 with FITC or APC conjugation; Life Technologies) and B-hemoglobin antibody (clone 37-8 with PerCP-Cy5 or PE conjugation; Santa Cruz) for 20 minutes in the dark. Cells were washed to remove unbound antibody prior to FACS analysis. 0.2 μg HbF and 2 μg of HbA CB-hemoglobin) antibodies were used per 5 million cells. Control cells exposed to a nontargeting sgRNA sample and BCL11A exon 2 were used as negative and positive controls respectively to establish flow cytometry conditions. Populations of cells with the top and bottom 10% of expression of HbF were sorted by FACS.
After sorting the HbF-high and HbF-low pools, library preparation and deep sequencing was performed as previously described (37). Briefly, genomic DNA was extracted using the Qiagen Blood and Tissue kit. […]

Substance | Enrichment Score
BCL_00084_H_D55 (guide AGGGTGTGCCCTGAGAAGGTNGG; listed as DNA, chemistry not given here) | 0.311
BCL_00092_H_D55 (guide TTCCCTTCCTAGAATTGGCCNGG; listed as DNA, chemistry not given here) | 0.4035
BCL_00252_H_exon2 (guide GCCCGTTGGGAGCTCCAGAANGG; listed as DNA, chemistry not given here) | 0.5453
BCL_01826_H_D62 (guide TTTGCTCTTCTCCAGGGTGTNGGRC; listed as DNA, chemistry not given here) | 0.4003
BCL_02009_H_exon2 (guide TCCCCTTCTGGAGCTCCCAANGGRC; listed as DNA, chemistry not given here) | 2.108
BCL_00264_H_exon2 (guide AAAAGCATCCAATCCCGTGGNGG; listed as DNA, chemistry not given here) | 0.5578
BCL_01641_H_D55 (guide CGGTGGCCGTTTGCCCAGGGNGGRC; listed as DNA, chemistry not given here) | 0.282
BCL_01998_H_exon2 (guide TTTCATCTCGATTGGTGAAGNGGRC; listed as DNA, chemistry not given here) | 0.3489
BCL_00259_H_exon2 (guide CCAGATGAACTTCCCATTGGNGG; listed as DNA, chemistry not given here) | 3.266
BCL_01428_H_D55 (guide GAATGTCCCAGGCCAATTCTNGGRC; listed as DNA, chemistry not given here) | 0.4299
BCL_01640_H_D58 (guide TCGGTGGCCGTTTGCCCAGGNGGRC; listed as DNA, chemistry not given here) | 0.3658
BCL_01989_H_exon2 (guide CTGCTATGTGTTCCTGTTTGNGGRC; listed as DNA, chemistry not given here) | 0.6201
BCL_01631_H_D58 (guide ATTAGGGTGGGGGCGTGGGTNGGRC; listed as DNA, chemistry not given here) | 0.4098
BCL_01617_H_D58 (guide CTAACAGTTGCTTTTATCACNGGRC; listed as DNA, chemistry not given here) | 2.495
BCL_00257_H_exon2 (guide TGCCAGATGAACTTCCCATTNGG; listed as DNA, chemistry not given here) | 1.945
BCL_00182_H_D58 (guide CTTCCGAAAGAGGCCCCCCTNGG; listed as DNA, chemistry not given here) | 0.2942
BCL_01624_H_D58 (guide GGTTTGGCCTCTGATTAGGGNGGRC; listed as DNA, chemistry not given here) | 1.472

Substance | Enrichment Score
BCL_01619_H_D58 (guide TTTTATCACAGGCTCCAGGANGGRC; listed as DNA, chemistry not given here) | 1.662
BCL_00239_H_D62 (guide GCCTGTAATCTCAGCTACTCNGG; listed as DNA, chemistry not given here) | 1.916
BCL_00248_H_exon2 (guide ACAGATGATGAACCAGACCANGG; listed as DNA, chemistry not given here) | 1.609
BCL_01448_H_D55 (guide TGTGCTTGGTCGGCACTGATNGGRC; listed as DNA, chemistry not given here) | 1.348
BCL_00051_H_D55 (guide GGAGGTGTGGAGGGGATAACNGG; listed as DNA, chemistry not given here) | 0.3141
BCL_01625_H_D58 (guide GTTTGGCCTCTGATTAGGGTNGGRC; listed as DNA, chemistry not given here) | 0.3718
BCL_00087_H_D55 (guide CATTGCATCATCCTGGTACCNGG; listed as DNA, chemistry not given here) | 0.438
BCL_01788_H_D62 (guide GAGATTTACTCTTGTTGCCCNGGRC; listed as DNA, chemistry not given here) | 1.29
BCL_01627_H_D58 (guide TTGGCCTCTGATTAGGGTGGNGGRC; listed as DNA, chemistry not given here) | 0.3054
BCL_00250_H_exon2 (guide GAACCAGACCACGGCCCGTTNGG; listed as DNA, chemistry not given here) | 1.581
BCL_01483_H_D55 (guide GTCATCCTCGGCCAATGAAGNGGRC; listed as DNA, chemistry not given here) | 0.4318
BCL_00008_H_D55 (guide TGAAACCAAGCTTCCTCTGCNGG; listed as DNA, chemistry not given here) | 0.2741
BCL_02003_H_exon2 (guide AAATAAGAATGTCCCCCAATNGGRC; listed as DNA, chemistry not given here) | 1.085
BCL_00210_H_D62 (guide TAAACAGCCACCCCACACCCNGG; listed as DNA, chemistry not given here) | 0.7026
BCL_01828_H_D62 (guide CTCTTCTCCAGGGTGTGGGGNGGRC; listed as DNA, chemistry not given here) | 0.3485
BCL_00186_H_D58 (guide CACGCCCCCACCCTAATCAGNGG; listed as DNA, chemistry not given here) | 0.8971

same assay, conditions: human library sgRNAs that produced HbF enrichment over 0.259

Substance | Dropout Score
BCL_00084_H_D55 (guide AGGGTGTGCCCTGAGAAGGTNGG; listed as DNA, chemistry not given here) | −0.3691
BCL_00092_H_D55 (guide TTCCCTTCCTAGAATTGGCCNGG; listed as DNA, chemistry not given here) | −0.4369
BCL_00252_H_exon2 (guide GCCCGTTGGGAGCTCCAGAANGG; listed as DNA, chemistry not given here) | 0.09212
BCL_01826_H_D62 (guide TTTGCTCTTCTCCAGGGTGTNGGRC; listed as DNA, chemistry not given here) | −0.3386
BCL_02009_H_exon2 (guide TCCCCTTCTGGAGCTCCCAANGGRC; listed as DNA, chemistry not given here) | −1.693
BCL_00264_H_exon2 (guide AAAAGCATCCAATCCCGTGGNGG; listed as DNA, chemistry not given here) | −1.376
BCL_01641_H_D55 (guide CGGTGGCCGTTTGCCCAGGGNGGRC; listed as DNA, chemistry not given here) | −0.4633
BCL_01998_H_exon2 (guide TTTCATCTCGATTGGTGAAGNGGRC; listed as DNA, chemistry not given here) | −0.1426
BCL_00259_H_exon2 (guide CCAGATGAACTTCCCATTGGNGG; listed as DNA, chemistry not given here) | −3.321
BCL_01428_H_D55 (guide GAATGTCCCAGGCCAATTCTNGGRC; listed as DNA, chemistry not given here) | −0.5435
BCL_01640_H_D58 (guide TCGGTGGCCGTTTGCCCAGGNGGRC; listed as DNA, chemistry not given here) | −1.013
BCL_01989_H_exon2 (guide CTGCTATGTGTTCCTGTTTGNGGRC; listed as DNA, chemistry not given here) | 0.0332
BCL_01631_H_D58 (guide ATTAGGGTGGGGGCGTGGGTNGGRC; listed as DNA, chemistry not given here) | −0.1615
BCL_01617_H_D58 (guide CTAACAGTTGCTTTTATCACNGGRC; listed as DNA, chemistry not given here) | −0.7193
BCL_00257_H_exon2 (guide TGCCAGATGAACTTCCCATTNGG; listed as DNA, chemistry not given here) | −1.9609
BCL_00182_H_D58 (guide CTTCCGAAAGAGGCCCCCCTNGG; listed as DNA, chemistry not given here) | 0.02396
BCL_01624_H_D58 (guide GGTTTGGCCTCTGATTAGGGNGGRC; listed as DNA, chemistry not given here) | −0.7713

Substance | Dropout Score
BCL_01619_H_D58 (guide TTTTATCACAGGCTCCAGGANGGRC; listed as DNA, chemistry not given here) | −0.3147
BCL_00239_H_D62 (guide GCCTGTAATCTCAGCTACTCNGG; listed as DNA, chemistry not given here) | −6.031
BCL_00248_H_exon2 (guide ACAGATGATGAACCAGACCANGG; listed as DNA, chemistry not given here) | −2.532
BCL_01448_H_D55 (guide TGTGCTTGGTCGGCACTGATNGGRC; listed as DNA, chemistry not given here) | −0.4953
BCL_00051_H_D55 (guide GGAGGTGTGGAGGGGATAACNGG; listed as DNA, chemistry not given here) | −0.1655
BCL_01625_H_D58 (guide GTTTGGCCTCTGATTAGGGTNGGRC; listed as DNA, chemistry not given here) | −0.9451
BCL_00087_H_D55 (guide CATTGCATCATCCTGGTACCNGG; listed as DNA, chemistry not given here) | −0.2253
BCL_01788_H_D62 (guide GAGATTTACTCTTGTTGCCCNGGRC; listed as DNA, chemistry not given here) | −5.463
BCL_01627_H_D58 (guide TTGGCCTCTGATTAGGGTGGNGGRC; listed as DNA, chemistry not given here) | −0.2564
BCL_00250_H_exon2 (guide GAACCAGACCACGGCCCGTTNGG; listed as DNA, chemistry not given here) | −0.6847
BCL_01483_H_D55 (guide GTCATCCTCGGCCAATGAAGNGGRC; listed as DNA, chemistry not given here) | −0.4056
BCL_00008_H_D55 (guide TGAAACCAAGCTTCCTCTGCNGG; listed as DNA, chemistry not given here) | −0.2303
BCL_02003_H_exon2 (guide AAATAAGAATGTCCCCCAATNGGRC; listed as DNA, chemistry not given here) | −0.09695
BCL_00210_H_D62 (guide TAAACAGCCACCCCACACCCNGG; listed as DNA, chemistry not given here) | −0.8705
BCL_01828_H_D62 (guide CTCTTCTCCAGGGTGTGGGGNGGRC; listed as DNA, chemistry not given here) | −0.391
BCL_00186_H_D58 (guide CACGCCCCCACCCTAATCAGNGG; listed as DNA, chemistry not given here) | −0.7965
